Test results published in US10508085B2, “Compounds and methods for IDO and TDO modulation, and indications therefor” (Plexxikon Inc., priority 2016, dated 2019).
Where two headings read alike, the source gives them in different places.

Tests used:
[1] = target: T1, human TDO (TDO-expressing HEK293 cells) (Homo sapiens, UniProt P48775); experiment: Cell based kynurenine assay, TDO-expressing HEK293 cell clones
T1 construct: expressed in transfected cells
Method in brief: (§1)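 Supernatant kynurenine was measured after 24 h exposure of stably transfected HEK293 cells (human IDO1 or TDO, 2.5×10^4/well) to serially diluted compound. Percent inhibition used 0.2% DMSO cell wells as high and media-only wells as low controls; IC50 fitted by nonlinear regression.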

[2] = target: T2, human IDO (IDO1-expressing HEK293 cells) (Homo sapiens, UniProt P14902); experiment: Cell based kynurenine assay, IDO1-expressing HEK293 cell clones
T2 construct: expressed in transfected cells
T2 sequence (P14902 whole entry): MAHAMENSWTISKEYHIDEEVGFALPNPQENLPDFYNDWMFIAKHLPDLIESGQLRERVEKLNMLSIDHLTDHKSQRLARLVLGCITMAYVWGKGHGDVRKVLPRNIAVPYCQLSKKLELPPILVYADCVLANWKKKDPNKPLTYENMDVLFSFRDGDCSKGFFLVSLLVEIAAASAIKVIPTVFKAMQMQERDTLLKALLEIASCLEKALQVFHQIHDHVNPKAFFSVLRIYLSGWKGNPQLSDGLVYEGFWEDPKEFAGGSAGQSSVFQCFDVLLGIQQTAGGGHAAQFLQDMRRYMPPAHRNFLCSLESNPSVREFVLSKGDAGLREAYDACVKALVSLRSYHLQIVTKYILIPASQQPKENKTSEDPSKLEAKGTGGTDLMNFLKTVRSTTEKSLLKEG
Method in brief: as §1

[3] = target: T3, Human Tryptophan 2,3-dioxygenase (TDO) (Homo sapiens, UniProt P48775); experiment: Human TDO enzymatic assay (kynurenine level); format: biochemical
T3 construct: His tag (N); made in house; host or cells: E. coli
T3 sequence (P48775 whole entry): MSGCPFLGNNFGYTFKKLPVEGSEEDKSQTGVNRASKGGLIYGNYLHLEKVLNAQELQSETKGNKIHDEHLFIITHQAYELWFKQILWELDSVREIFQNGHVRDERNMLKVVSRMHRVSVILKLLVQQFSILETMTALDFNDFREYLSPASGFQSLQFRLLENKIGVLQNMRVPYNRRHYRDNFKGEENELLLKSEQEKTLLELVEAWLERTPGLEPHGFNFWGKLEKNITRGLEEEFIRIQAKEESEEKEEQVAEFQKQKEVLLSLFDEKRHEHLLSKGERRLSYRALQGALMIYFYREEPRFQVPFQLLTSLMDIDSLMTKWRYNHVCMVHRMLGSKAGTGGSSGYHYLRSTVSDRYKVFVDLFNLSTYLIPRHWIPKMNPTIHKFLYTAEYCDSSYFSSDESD
Method in brief: (§2)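 Kynurenine formed is measured after TCA quench and 50 °C hydrolysis, with % inhibition against full-reaction and no-enzyme controls (5% DMSO). IDO: 6 nM enzyme, 10 μM L-Trp, 5 μM methylene blue, 20 min; TDO: 1 nM, 350 μM L-Trp, 0.4 μM methylene blue, 70 min; both pH 6.5, room temp, E. coli-expressed His-tagged.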

[4] = target: T4, Human Indoleamine 2,3-dioxygenase (IDO) (Homo sapiens, UniProt P14902); experiment: Human IDO enzymatic assay (kynurenine level); format: biochemical
T4 construct: His tag (N); made in house; host or cells: E. coli
T4 sequence (P14902 whole entry): as the sequence (P14902 whole entry) above
Method in brief: as §2

[5] = TDO-expressing HEK293 cells, 24 hours incubation, geometric mean, read-out: HEK293 TDO Kynurenine GMean IC50 (μM) (Cellular Assay)
[6] = IDO1-expressing HEK293 cells, 24 hours incubation, geometric mean, read-out: HEK293 IDO1 Kynurenine GMean IC50 (μM) (Cellular Assay)
[7] = 1 nM TDO, 350 μM L-Trp, geometric mean, read-out: TDO GMean: IC50 (μM) (Biochemical Assay)
[8] = 6 nM IDO, 10 μM L-Trp, geometric mean, read-out: IDO1 GMean: IC50 (μM) (Biochemical Assay)
[9] = TDO-expressing HEK293 cells, 24 hours, geometric mean, read-out: HEK293 TDO Kynurenine GMean IC50 (μM) (Cellular Assay)
[10] = IDO1-expressing HEK293 cells, 24 hours, geometric mean, read-out: HEK293 IDO1 Kynurenine GMean IC50 (μM) (Cellular Assay)

T1 sequence (P48775 whole entry): as the sequence (P48775 whole entry) above

Structure (SMILES)	IC50 [1, 5] [µM]	IC50 [2, 6] [µM]	IC50 [3, 7] [µM]	IC50 [4, 8] [µM]	IC50 [1, 9] [µM]	IC50 [2, 10] [µM]	IC50 ([1]; cellular assay, HEK293, 24 hours, comparative examples, read-out: hTDO) [µM]	IC50 ([2]; cellular assay, HEK293, 24 hours, comparative examples, read-out: hIDO1) [µM]	IC50 ([3]; biochemical assay, comparative examples, 4,6 versus 5,7 indazole, read-out: TDO) [µM]	IC50 ([4]; biochemical assay, comparative examples, 4,6 versus 5,7 indazole, read-out: IDO1) [µM]
OC1(c2cc(Cl)cc3cn[nH]c23)CC2(CCOCC2)C1 [Compound P-0029, 2-(5-chloro-1H-indazol-7-yl)-7-oxaspiro[3.5]nonan-2-ol]	0.0001 to 10	0.0001 to 10	0.0001 to 10	0.0001 to 10	–	–	–	–	–	–
CC(C)(C1CCN(C(=O)Nc2cccc(C(F)(F)F)c2)CC1)C(O)c1cc(Cl)cc2cn[nH]c12 (centres unmarked) [Compound P-0400, 4-(1-(5-chloro-1H-indazol-7-yl)-1-hydroxy-2-methylpropan-2-yl)-N-(3-(trifluoromethyl)phenyl)piperidine-1-carboxamide]	0.0001 to 10	0.0001 to 10	0.0001 to 10	0.0001 to 10	–	–	–	–	–	–
CC(C)C(=O)N1CCC(C(F)(F)C(O)c2c(F)c(Cl)cc3cn[nH]c23)CC1 (centres unmarked) [Compound P-0377, 1-(4-(2-(5-chloro-6-fluoro-1H-indazol-7-yl)-1,1-difluoro-2-hydroxyethyl)piperidin-1-yl)-2-methylpropan-1-one]	0.0001 to 10	0.0001 to 10	0.0001 to 10	0.0001 to 10	–	–	–	–	–	–
OC(CC1CCCCC1)c1cc(Cl)cc2cn[nH]c12 (centres unmarked) [Compound P-0007, 1-(5-chloro-1H-indazol-7-yl)-2-cyclohexylethan-1-ol]	0.0001 to 10	0.0001 to 10	0.0001 to 10	0.0001 to 10	–	–	–	–	–	–
NC(=O)N1CCC(C(F)(F)C(O)c2cc(Cl)cc3cn[nH]c23)CC1 (centres unmarked) [Compound P-0144, 4-(2-(5-chloro-1H-indazol-7-yl)-1,1-difluoro-2-hydroxyethyl)piperidine-1-carboxamide]	0.0001 to 10	0.0001 to 10	0.0001 to 10	0.0001 to 10	–	–	–	–	–	–
OC(c1cc(Cl)cc2cn[nH]c12)C12CC3CC(CC(C3)C1)C2 [Compound P-0010, ((1S,3s)-adamantan-l-yl)(5-chloro-1H-indazol-7-yl)methanol]	0.0001 to 10	0.0001 to 10	0.0001 to 10	0.0001 to 10	–	–	–	–	–	–
COC(=O)N1CCC(C2(C(O)c3c(F)c(Cl)cc4cn[nH]c34)CC2)CC1 (centres unmarked) [Compound P-0160, methyl 4-(1-((5-chloro-6-fluoro-1H-indazol-7-yl)(hydroxy)methyl)cyclopropyl)piperidine-1-carboxylate]	0.0001 to 10	0.0001 to 10	0.0001 to 10	0.0001 to 10	–	–	–	–	–	–
CC(C)(C1CCN(C(=O)CN2CCS(=O)(=O)CC2)CC1)C(O)c1cc(Cl)cc2cn[nH]c12 (centres unmarked) [Compound P-0487, 1-(4-(1-(5-chloro-1H-indazol-7-yl)-1-hydroxy-2-methylpropan-2-yl)piperidin-1-yl)-2-(1,1-dioxidothiomorpholino) ethan-1-one]	–	–	0.0001 to 10	0.0001 to 10	0.0001 to 10	0.0001 to 10	–	–	–	–
CC(C)(C1CCN(C(=O)NCCS(C)(=O)=O)CC1)[C@H](O)c1cc(Cl)cc2cn[nH]c12 [Compound P-0556, (S)-4-(1-(5-chloro-1H-indazol-7-yl)-1-hydroxy-2-methylpropan-2-yl)-N-(2-(methylsulfonyl)ethyl)piperidine-1-carboxamide]	–	–	0.0001 to 10	0.0001 to 10	0.0001 to 10	0.0001 to 10	–	–	–	–
OC(c1cc(Cl)cc2cn[nH]c12)C1(F)CCC(F)(F)CC1 (centres unmarked) [Compound P-0033, (5-chloro-1H-indazol-7-yl)(1,4,4-trifluorocyclohexyl)methanol]	0.0001 to 10	0.0001 to 10	0.0001 to 10	0.0001 to 10	–	–	–	–	–	–
NC(=O)N1CCC(C(F)(F)C(O)c2c(F)c(Cl)cc3cn[nH]c23)CC1 (centres unmarked) [Compound P-0379, 4-(2-(5-chloro-6-fluoro-1H-indazol-7-yl)-1,1-difluoro-2-hydroxyethyl) piperidine-1-carboxamide]	0.0001 to 10	0.0001 to 10	0.0001 to 10	0.0001 to 10	–	–	–	–	–	–
OC(c1c2c(cc3cn[nH]c13)CC2)C12CCC(CC1)CC2 (centres unmarked) [Compound P-0279, bicyclo[2.2.2]octan-1-yl(5,6-dihydro-1H-cyclobuta[f]indazol-7-yl)methanol]	> 10	0.0001 to 10	0.0001 to 10	0.0001 to 10	–	–	–	–	–	–
CC(C)(C1CCN(C(=O)Nc2ccc(F)cc2F)CC1)C(O)c1cc(Cl)cc2cn[nH]c12 (centres unmarked) [Compound P-0398, 4-(1-(5-chloro-1H-indazol-7-yl)-1-hydroxy-2-methylpropan-2-yl)-N-(2,4-difluorophenyl) piperidine-1-carboxamide]	0.0001 to 10	0.0001 to 10	0.0001 to 10	0.0001 to 10	–	–	–	–	–	–
O=C(Nc1cccc(Cl)c1)N1CCC(C(F)(F)C(O)c2cc(Cl)cc3cn[nH]c23)CC1 (centres unmarked) [Compound P-0488, 4-(2-(5-chloro-1H-indazol-7-yl)-1,1-difluoro-2-hydroxyethyl)-N-(3-chlorophenyl) piperidine-1-carboxamide]	–	–	0.0001 to 10	0.0001 to 10	0.0001 to 10	0.0001 to 10	–	–	–	–
CC1(C)CN(c2c3c(cc4cn[nH]c24)CC3)CCN1S(C)(=O)=O [Compound P-0292, 7-(3,3-dimethyl-4-(methylsulfonyl)piperazin-1-yl)-5,6-dihydro-1H-cyclobuta[f]indazole]	0.0001 to 10	0.0001 to 10	0.0001 to 10	0.0001 to 10	–	–	–	–	–	–
CC(O)(c1cc(Cl)cc2cn[nH]c12)C1CCCC1 (centres unmarked) [Compound P-0205, 1-(5-chloro-1H-indazol-7-yl)-1-cyclopentylethan-1-ol]	0.0001 to 10	> 10	10 to 100	10 to 100	–	–	–	–	–	–
CCS(=O)(=O)N1CCC(C(C)(C)[C@H](O)c2cc(Cl)cc3cn[nH]c23)CC1 [Compound P-0557, (S)-1-(5-chloro-1H-indazol-7-yl)-2-(1-(ethylsulfonyl)piperidin-4-yl)-2-methylpropan-1-ol]	–	–	0.0001 to 10	0.0001 to 10	0.0001 to 10	0.0001 to 10	–	–	–	–
OC(c1c(F)c(Cl)cc2cn[nH]c12)C1(C2CCOCC2)CC1 (centres unmarked) [Compound P-0235, (5-chloro-6-fluoro-1H-indazol-7-yl)(1-(tetrahydro-2H-pyran-4-yl)cyclopropyl)methanol]	0.0001 to 10	0.0001 to 10	0.0001 to 10	0.0001 to 10	–	–	–	–	–	–
CC(C)(C(O)c1cc(Cl)cc2cn[nH]c12)C(F)(F)F (centres unmarked) [Compound P-0250, 1-(5-chloro-1H-indazol-7-yl)-3,3,3-trifluoro-2,2-dimethylpropan-1-ol]	0.0001 to 10	0.0001 to 10	0.0001 to 10	0.0001 to 10	–	–	–	–	–	–
CC(C)(C1CCOCC1)C(O)c1cc(Cl)cc2[nH]ncc12 (centres unmarked) [drawing 817]	–	–	–	–	–	–	0.01	6.94	0.08	0.95
CC(C)(C(O)c1cc(Cl)cc2cn[nH]c12)N1CCOCC1 (centres unmarked) [Compound P-0215, 1-(5-chloro-1H-indazol-7-yl)-2-methyl-2-morpholinopropan-1-ol]	0.0001 to 10	0.0001 to 10	0.0001 to 10	0.0001 to 10	–	–	–	–	–	–
CC(C)(C1CC1)C(O)c1cc(Cl)cc2cn[nH]c12 (centres unmarked) [Compound P-0224, 1-(5-chloro-1H-indazol-7-yl)-2-cyclopropyl-2-methylpropan-1-ol]	0.0001 to 10	0.0001 to 10	0.0001 to 10	0.0001 to 10	–	–	–	–	–	–
OC(c1cc(Cl)cc2cn[nH]c12)C12CCC(CC1)C2 (centres unmarked) [Compound P-0229, bicyclo[2.2.1]heptan-1-yl(5-chloro-1H-indazol-7-yl)methanol]	0.0001 to 10	0.0001 to 10	0.0001 to 10	0.0001 to 10	–	–	–	–	–	–
